IC50 data for 6 molecules are collected here from ChEMBL document CHEMBL1126339, “HMG-CoA reductase inhibitors 4. Tetrazole series: conformational constraints and structural requirements at the hydrophobic domain” (Bioorg Med Chem Lett, 1992).

The experiment addresses T1, 3-hydroxy-3-methylglutaryl-coenzyme A reductase (Rattus norvegicus, UniProt P51639).
T1 sequence (P51639 whole entry): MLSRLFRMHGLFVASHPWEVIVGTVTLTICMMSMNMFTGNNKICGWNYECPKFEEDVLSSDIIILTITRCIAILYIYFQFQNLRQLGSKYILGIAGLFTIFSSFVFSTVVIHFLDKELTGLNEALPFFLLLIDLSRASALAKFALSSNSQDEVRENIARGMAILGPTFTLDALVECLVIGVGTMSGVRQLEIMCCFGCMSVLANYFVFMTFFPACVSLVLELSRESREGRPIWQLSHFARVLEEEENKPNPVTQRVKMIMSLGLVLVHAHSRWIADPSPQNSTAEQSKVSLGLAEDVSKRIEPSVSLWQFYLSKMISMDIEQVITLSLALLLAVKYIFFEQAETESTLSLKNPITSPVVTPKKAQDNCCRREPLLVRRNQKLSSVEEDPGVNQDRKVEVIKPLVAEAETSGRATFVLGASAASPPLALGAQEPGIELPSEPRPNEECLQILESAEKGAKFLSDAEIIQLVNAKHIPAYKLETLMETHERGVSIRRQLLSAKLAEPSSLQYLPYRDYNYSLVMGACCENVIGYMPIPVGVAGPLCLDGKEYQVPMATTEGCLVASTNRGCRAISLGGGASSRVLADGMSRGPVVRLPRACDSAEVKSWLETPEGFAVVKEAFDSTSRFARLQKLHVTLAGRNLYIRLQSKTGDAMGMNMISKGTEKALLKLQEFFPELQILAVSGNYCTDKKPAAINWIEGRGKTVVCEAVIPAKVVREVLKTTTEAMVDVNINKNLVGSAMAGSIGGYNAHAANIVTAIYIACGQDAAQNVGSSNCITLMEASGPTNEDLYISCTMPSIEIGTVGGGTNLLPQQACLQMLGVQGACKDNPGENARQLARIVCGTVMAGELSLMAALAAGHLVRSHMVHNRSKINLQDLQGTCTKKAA
Kind of experiment: Compound was tested for its inhibitory activity against rat liver microsomal HMG-CoA reductase.
For `Cn1nnnc1C(/C=C/C(O)CC(O)CC(=O)O)=C(c1ccc(F)cc1)c1ccc(F)cc1` (stereo unspecified), inhibition was half-maximal at 0.043 µM (IC50). Next, `Cn1nnnc1C(/C=C/C(O)CC(O)CC(=O)O)=C1c2ccc(F)cc2-c2cc(F)ccc21` (stereo unspecified): more than 4.1 µM; `O=C(O)CC(O)CC(O)/C=C/c1c(-c2ccc(F)cc2)c2ccccc2n2nnnc12` (stereo unspecified): 4.6 µM.

For the molecule `Cn1nnnc1C(=C\c1ccc(F)cc1)/C=C/C(O)CC(O)CC(=O)O` (stereo unspecified), the IC50 worked out at 210 µM. Next, `Cn1nnnc1C(/C=C/C(O)CC(O)CC(=O)O)=C/c1ccc(F)cc1` (stereo unspecified): more than 250 µM.

Take `Cn1nnnc1C(CCC(O)CC(O)CC(=O)O)Cc1ccc(F)cc1` (stereo unspecified): the IC50 is more than 250 µM.
